Source: patent publication US20240228572A1 (i2o Therapeutics, Inc., priority 2020, published 2024)
*1 amine or outer side, *2 acyl side, *3 side chain or, on linkers, in order; H or OH if unused. Where a SMILES comes first, the peptide text is derived from it. Side-chain parts run from the residue outwards. [ ]: non-standard residue; d: D form. The star is where a group is joined. C20 diacid = O=C(O)CCCCCCCCCCCCCCCCCCC(=O)*; γGlu = O=C(O)[C@H](CCC(=O)[*:2])N[*:1]; AEEA = NCCOCCOCC(=O)O; Aib = CC(C)(N)C(=O)O

Experiments:
[1] = biological target: serum albumin (Macaca fascicularis, UniProt A2V9Z4); test: Fraction unbound (fu) in plasma by surface plasmon resonance, monkey; assay type: in vitro ADME; conditions: SPR binding to serum albumin
Chain of serum albumin (Macaca fascicularis, UniProt A2V9Z4) (A2V9Z4 25-608): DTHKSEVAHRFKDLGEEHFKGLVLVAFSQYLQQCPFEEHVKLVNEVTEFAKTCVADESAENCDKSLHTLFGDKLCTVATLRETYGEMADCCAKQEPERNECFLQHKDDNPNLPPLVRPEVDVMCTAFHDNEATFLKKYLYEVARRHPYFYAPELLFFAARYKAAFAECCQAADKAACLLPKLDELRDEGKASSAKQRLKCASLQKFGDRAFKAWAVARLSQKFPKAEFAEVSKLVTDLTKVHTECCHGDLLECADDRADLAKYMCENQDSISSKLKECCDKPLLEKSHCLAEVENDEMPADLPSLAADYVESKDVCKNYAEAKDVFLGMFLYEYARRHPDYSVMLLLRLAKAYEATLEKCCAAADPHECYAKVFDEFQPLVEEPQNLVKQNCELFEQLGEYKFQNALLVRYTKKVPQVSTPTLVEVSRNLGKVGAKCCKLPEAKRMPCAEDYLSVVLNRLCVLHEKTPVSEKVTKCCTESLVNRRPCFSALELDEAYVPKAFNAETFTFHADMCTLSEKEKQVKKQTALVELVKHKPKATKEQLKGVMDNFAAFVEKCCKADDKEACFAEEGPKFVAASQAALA
Method: (§1) Conventional methods of measuring plasma protein binding, such as equilibrium dialysis, ultrafiltration and ultracentrifugation, are not reliable with peptides because of their tendency to adsorb to the surface of plastic tubing, dialysis membranes and molecular weight cut-off filters. As a result, the extent to which acylated peptides bind to serum albumin was evaluated using surface plasmon resonance (SPR).

[2] = biological target: serum albumin (Rattus norvegicus, UniProt P02770); test: Fraction unbound (fu) in plasma by surface plasmon resonance, rat; assay type: in vitro ADME; conditions: SPR binding to serum albumin
Chain of serum albumin (Rattus norvegicus, UniProt P02770) (P02770 25-608): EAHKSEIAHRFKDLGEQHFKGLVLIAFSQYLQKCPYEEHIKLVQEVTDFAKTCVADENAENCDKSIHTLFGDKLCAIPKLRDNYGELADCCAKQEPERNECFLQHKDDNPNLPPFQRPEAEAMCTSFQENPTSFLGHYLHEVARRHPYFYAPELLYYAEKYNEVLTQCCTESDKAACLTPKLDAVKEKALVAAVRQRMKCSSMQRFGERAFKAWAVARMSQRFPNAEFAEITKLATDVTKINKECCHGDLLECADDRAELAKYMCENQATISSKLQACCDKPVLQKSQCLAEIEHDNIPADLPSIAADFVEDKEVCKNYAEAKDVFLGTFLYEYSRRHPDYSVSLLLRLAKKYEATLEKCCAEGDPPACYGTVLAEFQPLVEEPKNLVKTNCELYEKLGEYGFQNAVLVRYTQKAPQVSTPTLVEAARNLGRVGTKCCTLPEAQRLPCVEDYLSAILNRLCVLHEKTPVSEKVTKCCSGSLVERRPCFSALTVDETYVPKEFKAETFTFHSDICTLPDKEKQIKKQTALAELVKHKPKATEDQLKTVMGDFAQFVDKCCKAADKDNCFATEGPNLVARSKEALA
Method: as §1

[3] = tested on: cynomolgus monkey GCGR; test: cAMP accumulation assay, CHO-K1 cells expressing cynomolgus monkey GCGR; assay type: cell-based; conditions: cyno glucagon receptor
From the text: In the presence of the non-specific cAMP/cGMP phosphodiesterase inhibitor, 3-isobutyl-1-methylxanthine (IBMX), accumulating cAMP can be measured in vitro using common detection methods. Thus, it is possible to estimate an in vitro potency (pEC50) for peptides activating each of these receptors using fit dose-response curves for cAMP accumulation.
A cDNA fragment encoding the full-length open reading frame of the cynomolgus monkey GLP-1R (Genebank accession #XM_028847603 was cloned into pcDNA3.1+ for expression in CHO-K1 cells. A cDNA fragment encoding the full-length open reading frame of the human GCGR (Genebank accession #NM_000160 was cloned into pcDNA3.1+ for expression in CHO-K1 cells. A cDNA fragment encoding the full-length open reading frame of the rat GCGR (Genebank accession #NM_12091 was cloned into pcDNA3.1+ for expression in CHO-K1 cells. A cDNA fragment encoding the full-length open reading frame of the cynomolgus monkey GCGR (Genebank accession #XM_005585255 was cloned into pcDNA3.1+ for expression in CHO-K1 cells. […]
Peptides were serially diluted 4-fold in assay buffer to final concentrations ranging from 1×10^−9 M to 9.5×10^−16 M. Two assay controls consisting of 50 mcM forskolin (cAMP system maximum) or assay buffer only (cAMP system minimum) were also prepared. […] Plates were read on an Envision fluorescent plate reader (PerkinElmer). […]

[4] = Subcutaneous bolus injection pharmacokinetics / bioavailability in rats; assay type: in vivo; conditions: rat, plasma; SC bolus 0.11 mg/kg, male Sprague-Dawley rats
Method: Peptides were dissolved in sterile saline and administered to non-fasted male Sprague-Dawley rats (n=3 per group) at a dose of 0.1 mg/kg via a single bolus injection into the subcutaneous space between the scapulae. Blood samples (approximately 250 μL) were collected for pharmacokinetic analysis via a jugular vein cannula at 0.083, 0.25, 0.5, 1, 2, 4, 8, 24, 48, 72, 96, and 120 hr post-dose into microtainer tubes containing K2EDTA as anticoagulant and 25 μL of a protease inhibitor cocktail. Plasma was prepared by centrifugation and stored at −80° C. until analysis.
A 70 μL aliquot of each plasma sample was placed into to a 96-well plate. To each well was added 210 μL of 0.1% TFA in 2:1 ethanol:acetonitrile containing an appropriate internal standard. Plates were vortex mixed for 10 min at 1300 rpm, and then centrifuged for 10 min at 500× g. Supernatants (210 μL) were placed into a clean 96-well plate and evaporated under a nitrogen stream at 45° C. Residues were reconstituted in 80 μL of 20% acetonitrile (aq) containing 0.1% formic acid.
All calibration standards were prepared in control rat plasma containing K2EDTA and protease inhibitor cocktail.
Samples and standards were analyzed by electrospray ionization (ESI) UPLC-MS/MS using a system consisting of a CTC HTS PAL auto-injector (Leap, Carrboro, NC), an Agilent Infinity 1290 system with column oven (Palo Alto, CA), a Valco switching valve (Houston, TX), and a Sciex TripleTOF® 5600 mass spectrometer (Framingham, MA). Samples were injected onto a 2.1×50 mm reverse phase C18 analytical column, typically a Waters CORTECS UPLC C18+, 1.6 μm (Waters Corporation, Milford, MA) or similar. […] Initial conditions consisted of 95% A and 5% B. The organic component was increased to 95% B over a period of 3-4 minutes, depending on the peptide. Typical flow rates were 550 μL/min. The column temperature was held constant at 45° C. Peptides were quantified by monitoring one or more product ions produced from a multiply charged parent ion.

In the case of `CC(C)C[C@H](NC(=O)[C@H](Cc1ccc(O)cc1)NC(=O)[C@H](CCCCN)NC(=O)[C@H](CO)NC(=O)[C@H](Cc1ccc(O)cc1)NC(=O)[C@H](CC(=O)O)NC(=O)[C@H](CO)NC(=O)[C@@H](NC(=O)[C@H](Cc1ccccc1)NC(=O)[C@@H](NC(=O)CNC(=O)[C@H](Cc1c[nH]cn1)NC(=O)[C@H](CO)NC(=O)[C@@H](N)Cc1ccc(O)cc1)[C@@H](C)O)[C@@H](C)O)C(=O)N[C@@H](CC(=O)O)C(=O)NC(C)(C)C(=O)N[C@@H](CCCCN)C(=O)N[C@@H](Cc1ccc(O)cc1)C(=O)N[C@@H](C)C(=O)N[C@@H](CCC(N)=O)C(=O)N[C@@H](CCCCNC(=O)CC[C@H](NC(=O)CC[C@H](NC(=O)COCCOCCNC(=O)CCCCCCCCCCCCCCCCCCC(=O)O)C(=O)O)C(=O)O)C(=O)N[C@@H](Cc1ccccc1)C(=O)N[C@H](C(=O)NC(C)(C)C(=O)N[C@@H](Cc1c[nH]c2ccccc12)C(=O)N[C@@H](CC(C)C)C(=O)N[C@@H](CCC(=O)O)C(=O)N[C@@H](CC(=O)O)C(=O)N[C@@H](CCC(=O)O)C(=O)N1CCC[C@H]1C(=O)N[C@@H](CO)C(=O)N[C@@H](CO)C(=O)NCC(=O)N[C@@H](C)C(=O)N1CCC[C@H]1C(=O)N1CCC[C@H]1C(=O)N1CCC[C@H]1C(=O)N[C@@H](CO)C(=O)O)C(C)C` [Compound A6] (H-YSHGTFTSDYSKYLD[Aib]KYAQK([γGlu-γGlu-AEEA-C20 diacid])FV[Aib]WLEDEPSSGAPPPS-OH; N-terminus assumed), the fraction unbound [1] is reported as 0.0048, the fraction unbound [2] is reported as 0.0083 and the “Activity (as EC50 values) cGCGR” value [3] is reported as 9.77. It also gave a Cmax [4] of 462 ng/mL, a Tmax [4] of 8 to 24 h and a bioavailability [4] of 94.9%. The half-life [4] was 15.8 h.
